Data reported in article PMC6222660, “Antiviral 4-Hydroxypleurogrisein and Antimicrobial Pleurotin Derivatives from Cultures of the Nematophagous Basidiomycete Hohenbuehelia grisea” (Molecules : A Journal of Synthetic Chemistry and Natural …, 2018).
In brackets after ≈: the same amount, converted by molar mass. Read-outs that look alike come from different tables or passages of the source.

Assays:
Type in all cases: cell-based
Mucor plumbeus MUCL49355 = test: MIC serial dilution assay; design: key: -: no inhibition observed under test conditions; conditions: highest concentration 67 or 100 µg/mL
Source text: (§1) The minimum inhibitory concentration (MIC) for each compound was ascertained in a serial dilution assay in 96-well microtiter plates, as previously published by Kuhnert et al., using YM media for yeasts and filamentous fungi and BD^TM Difco™ Mueller Hinton Broth for bacteria.

[1] = test system: Rhodotorula glutinis DSM10134; test: MIC serial dilution assay; design: key: -: no inhibition observed under test conditions; conditions: highest concentration 67 or 100 µg/mL
Source text: as §1

[2] = test system: Micrococcus luteus DSM1790; test: MIC serial dilution assay; design: key: -: no inhibition observed under test conditions; conditions: highest concentration 67 or 100 µg/mL
Source text: as §1

Pichia anomala DSM6766 = test: MIC serial dilution assay; design: key: -: no inhibition observed under test conditions; conditions: highest concentration 67 or 100 µg/mL
Source text: as §1

Mucor hiemalis DSM2656 = test: MIC serial dilution assay; design: key: -: no inhibition observed under test conditions; conditions: highest concentration 67 or 100 µg/mL
Source text: as §1

Bacillus subtilis DSM10 = test: MIC serial dilution assay; design: key: -: no inhibition observed under test conditions; conditions: highest concentration 67 or 100 µg/mL
Source text: as §1

[3] = test system: Staphylococcus aureus DSM346; test: MIC serial dilution assay; design: key: -: no inhibition observed under test conditions; conditions: highest concentration 67 or 100 µg/mL
Source text: as §1

Candida tenuis MUCL29892 = test: MIC serial dilution assay; design: key: -: no inhibition observed under test conditions; conditions: highest concentration 67 or 100 µg/mL
Source text: as §1

Candida albicans DSM1665 = test: MIC serial dilution assay; design: key: -: no inhibition observed under test conditions; conditions: highest concentration 67 or 100 µg/mL
Source text: as §1

[4] = test system: mouse fibroblast cell line L929; test: In vitro cytotoxicity assay; conditions: 120 h, 6 × 10^3 cells/well, treated over five days
Procedure: (§2) In vitro cytotoxicity assay was performed as described by Richter et al. against the mouse fibroblast cell line L929 and the cervix carcinoma cell line KB3.1.

[5] = test system: cervix carcinoma cell line KB3.1; test: In vitro cytotoxicity assay; conditions: Homo sapiens, KB 3-1, 120 h, 6 × 10^3 cells/well, treated over five days
Procedure: as §2

hepatitis C virus (HCV) = test: Inhibitory effects on HCV infectivity (Renilla luciferase reporter virus in Huh-7.5 cells); conditions: Huh-7.5 host cells
Procedure: Figure 4 Antiviral activity of 4-hydroxypleurogrisin (11). NC-Negative control, EGCG-Positive control. HCV assay was performed in triplicates and is presented as the mean ± standard deviation. The asterisk indicates statistically significant differences (* p ≤ 0.05, ** p ≤ 0.01, *** p ≤ 0.001). Huh-7.5 cells were inoculated with RLuc-Jc1 reporter viruses in the presence of 4-hydroxypleurogrisein. The inoculum was removed 4 h later and monolayers were washed three times with PBS and overlaid with fresh medium containing no inhibitors. Infected cells were lysed three days later, and reporter virus infection was determined by renilla luciferase activity (top). The cell viability was measured by determination of firefly luciferase (bottom), which is stably expressed in the target cells.
This assay was carried out as described previously by Mulwa et al.. Huh7.5 cells stably expressing Firefly luciferase (Huh7.5 Fluc) were cultured in Dulbecco’s modified minimum essential medium (DMEM, Life Technologies, Darmstadt, Germany) containing 2 mM L glutamine, 1 × minimum essential medium nonessential amino acids (MEM NEAA, Life Technologies), 100 μg/mL streptomycin, 100 IU/mL penicillin (Life Technologies), 5 μg/mL blasticidin and 10% fetal bovine serum. Cells were maintained in a 37 °C environment with 5% CO2 supply. Cells were infected with Jc1-derived Renilla reporter viruses in the presence or absence of compounds as described previously. Infected cells were lysed and then frozen at −80 °C for 1 h following measurements of Renilla and Firefly luciferase activities on a Berthold Technologies Centro XS3 Microplate Luminometer (Bad Wildbad, Germany) as indicators of viral genome replication and cell viability, respectively.

[6] = Hansenula anomala, read-out: MIC
[7] = Yamadazyma tenuis, read-out: MIC

Compound | MIC ([1]; read-out: MIC) | MIC (Pichia anomala DSM6766; [6]) | MIC (Mucor hiemalis DSM2656; read-out: MIC) | MIC (Bacillus subtilis DSM10; read-out: MIC) | MIC ([3]; read-out: MIC) | MIC (Candida tenuis MUCL29892; [7]) | IC50 [4] | IC50 [5] | MIC (Mucor plumbeus MUCL49355) | MIC (Candida albicans DSM1665) | MIC [2] | MIC (Pichia anomala DSM6766) | MIC (Mucor hiemalis DSM2656) | MIC [3] | MIC [1] | MIC (Candida tenuis MUCL29892) | other results
C[C@@H]1CO[C@@H]2C3=C(C(=O)C=CC3=O)[C@H]3OC(=O)[C@@H]4CC[C@H]5[C@@H]1CC[C@@]25[C@@H]34 [Compound 1, pleurotin] | 16.7 µg/mL (≈ 47.1 µM) | 66.7 µg/mL (≈ 188 µM) | 8.3 µg/mL (≈ 23.4 µM) | 50 µg/mL (≈ 141 µM) | 33.3 µg/mL (≈ 94 µM) | 25 µg/mL (≈ 70.5 µM) | 7.5 µg/mL (≈ 21.2 µM) | 8.5 µg/mL (≈ 24 µM) |  |  |  |  |  |  |  |  | MIC (Mucor plumbeus MUCL49355; read-out: MIC): 100 µg/mL (≈ 282 µM); MIC ([2]; read-out: MIC): 66.7 µg/mL (≈ 188 µM); MIC (Candida albicans DSM1665; read-out: MIC): 33.3 µg/mL (≈ 94 µM)
C[C@@H]1CO[C@@H]2c3c(O)ccc(O)c3[C@H]3OC(=O)[C@@H]4CC[C@H]5[C@@H]1CC[C@@]25[C@@H]34 [Compound 2, leucopleurotin, reference compound] | 33.3 µg/mL (≈ 93.4 µM) | 66.7 µg/mL (≈ 187 µM) | 33.3 µg/mL (≈ 93.4 µM) | 25 µg/mL (≈ 70.1 µM) | 33.3 µg/mL (≈ 93.4 µM) | 100 µg/mL (≈ 281 µM) | 2.2 µg/mL (≈ 6.17 µM) | 2.8 µg/mL (≈ 7.86 µM) | - | - |  |  |  |  |  |  | MIC ([2]; read-out: MIC): 66.7 µg/mL (≈ 187 µM)
CC1COC2C3=C(CC4C(C(=O)O)CCC5C1CCC245)C(=O)C=CC3=O (stereo not drawn) [Compound 3, dihydropleurotinic acid, reference compound] | 33.3 µg/mL (≈ 93.4 µM) | 66.7 µg/mL (≈ 187 µM) | 16.7 µg/mL (≈ 46.9 µM) | 100 µg/mL (≈ 281 µM) | 66.7 µg/mL (≈ 187 µM) | 100 µg/mL (≈ 281 µM) | 18 µg/mL (≈ 50.5 µM) | 18 µg/mL (≈ 50.5 µM) |  | - | - |  |  |  |  |  | MIC (Mucor plumbeus MUCL49355; read-out: MIC): 100 µg/mL (≈ 281 µM)
CC1COC2C3=C(CC4C(C(=O)O)CCC5C1(O)CCC245)C(=O)C=CC3=O (stereo not drawn) [Compound 5, 3-Hydroxy-dihydropleurotinic acid] | 33.3 µg/mL (≈ 89.4 µM) |  |  | 100 µg/mL (≈ 269 µM) |  | 100 µg/mL (≈ 269 µM) | 22 µg/mL (≈ 59.1 µM) | 22 µg/mL (≈ 59.1 µM) | - | - | - | - | - | - |  |  | activity in the HCV assay in vitro (hepatitis C virus (HCV)): devoid of any activity
C[C@@H]1CO[C@@H]2C3=C(C(=O)C=CC3=O)[C@@H](O)[C@H]3[C@H](C(=O)O)CC[C@H]4[C@@H]1CC[C@@]324 [Compound 6, 14-Hydroxy-dihydropleurotinic acid] |  |  |  |  |  |  | 23 µg/mL (≈ 61.8 µM) | 22 µg/mL (≈ 59.1 µM) | - | - | - | - | - | - | - | - | MIC (Bacillus subtilis DSM10): -
C[C@@H]1CO[C@@H]2c3c(O)ccc(O)c3C[C@H]3[C@H](C(=O)O)CC[C@H]4[C@@H]1CC[C@@]243 [Compound 7, Leucopleurotinic acid] |  |  |  |  |  |  | 17 µg/mL (≈ 47.4 µM) | 20 µg/mL (≈ 55.8 µM) | - | - | - | - | - | - | - | - | MIC (Bacillus subtilis DSM10): -
C[C@@H]1CO[C@@H]2c3c(O)ccc(O)c3C(=O)[C@H]3[C@H](C(=O)O)CC[C@H]4[C@@H]1CC[C@@]243 [Compound 8, 14-oxo-leucopleuotinic acid] |  |  |  | 50 µg/mL (≈ 134 µM) |  |  | 22 µg/mL (≈ 59.1 µM) | 22 µg/mL (≈ 59.1 µM) | - | - | - | - | - | - | - | - | 
